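Briefly, cells in 96-well plates were exposed to five compound concentrations for 48 h, and endpoints were estimated by linear interpolation. GI50 marks 50% less growth.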 Calls of active or inactive are those of the source. Cut-off read from the data, not from the text of the source: active = GI50 up to about 1.1 µM and inactive = higher.
Columns and labels:
Assay in all cases: DTP human tumour cell line panel, 48 h
MOLT-4 = system: MOLT-4
SNB-19 = system: SNB-19
LXFL 529 = system: LXFL 529
TK-10 = system: TK-10
OVCAR-3 = system: OVCAR-3
LOX IMVI = system: LOX IMVI
EKVX = system: EKVX
KM12 = system: KM12
SR = system: SR
KM-20L2 = system: KM-20L2
UACC-62 = system: UACC-62
SNB-75 = system: SNB-75
COLO 205 = system: COLO 205
HOP-62 = system: HOP-62
SF-295 = system: SF-295
NCI-H460 = system: NCI-H460
IGROV-1 = system: IGROV-1
OVCAR-4 = system: OVCAR-4
HOP-18 = system: HOP-18
HOP-92 = system: HOP-92
SK-OV-3 = system: SK-OV-3
SK-MEL-28 = system: SK-MEL-28
HCT-15 = system: HCT-15
HCC 2998 = system: HCC 2998
OVCAR-8 = system: OVCAR-8
SW-620 = system: SW-620
SK-MEL-5 = system: SK-MEL-5
A498 = system: A498
RXF 631 = system: RXF 631
DMS-273 = system: DMS-273
U-251 = system: U-251
CCRF-CEM = system: CCRF-CEM
UACC-257 = system: UACC-257
Malme-3M = system: Malme-3M
786-0 = system: 786-0
SN12C = system: SN12C
A549 = system: A549
XF498 = system: XF498
RPMI-8226 = system: RPMI-8226
DLD-1 = system: DLD-1
OVCAR-5 = system: OVCAR-5
CAKI-1 = system: CAKI-1
HL-60 = system: HL-60
ACHN = system: ACHN
UO-31 = system: UO-31
NCI-H226 = system: NCI-H226
M14 = system: M14
K562 = system: K562
DMS-114 = system: DMS-114
HT-29 = system: HT-29
SK-MEL-2 = system: SK-MEL-2
NCI-H23 = system: NCI-H23
SF-539 = system: SF-539
HCT-116 = system: HCT-116
SNB-78 = system: SNB-78
SF-268 = system: SF-268
M19-MEL = system: M19-MEL
NCI-H522 = system: NCI-H522
RXF 393 = system: RXF 393

C=CCn1c(=O)c(C(=O)NC(=O)OCC)cn(C2CCCCC2)c1=O
GI50 (MOLT-4): > 100 µM (inactive) | GI50 (SNB-19): > 100 µM (inactive) | GI50 (LXFL 529): > 100 µM (inactive) | GI50 (TK-10): > 100 µM (inactive) | GI50 (OVCAR-3): > 100 µM (inactive) | GI50 (LOX IMVI): > 100 µM (inactive) | GI50 (EKVX): > 100 µM (inactive) | GI50 (KM12): > 100 µM (inactive) | GI50 (SR): > 100 µM (inactive) | GI50 (KM-20L2): > 100 µM (inactive) | GI50 (UACC-62): > 100 µM (inactive) | GI50 (SNB-75): > 100 µM (inactive) | GI50 (COLO 205): > 100 µM (inactive) | GI50 (HOP-62): > 100 µM (inactive) | GI50 (SF-295): > 100 µM (inactive) | GI50 (NCI-H460): > 100 µM (inactive) | GI50 (IGROV-1): > 100 µM (inactive) | GI50 (OVCAR-4): > 100 µM (inactive) | GI50 (HOP-18): > 100 µM (inactive) | GI50 (HOP-92): > 100 µM (inactive) | GI50 (SK-OV-3): > 100 µM (inactive) | GI50 (SK-MEL-28): > 100 µM (inactive) | GI50 (HCT-15): > 100 µM | GI50 (HCC 2998): > 100 µM (inactive) | GI50 (OVCAR-8): > 100 µM (inactive) | GI50 (SW-620): > 100 µM (inactive) | GI50 (SK-MEL-5): > 100 µM (inactive) | GI50 (A498): > 100 µM (inactive) | GI50 (RXF 631): > 100 µM (inactive) | GI50 (DMS-273): > 100 µM (inactive) | GI50 (U-251): > 100 µM (inactive) | GI50 (CCRF-CEM): > 100 µM (inactive) | GI50 (UACC-257): > 100 µM (inactive) | GI50 (Malme-3M): > 100 µM (inactive) | GI50 (786-0): > 100 µM (inactive) | GI50 (SN12C): > 100 µM (inactive) | GI50 (A549): > 100 µM (inactive) | GI50 (XF498): > 100 µM (inactive) | GI50 (RPMI-8226): > 100 µM (inactive) | GI50 (DLD-1): > 100 µM (inactive) | GI50 (OVCAR-5): > 100 µM (inactive) | GI50 (CAKI-1): > 100 µM (inactive) | GI50 (HL-60): > 100 µM (inactive) | GI50 (ACHN): > 100 µM (inactive) | GI50 (UO-31): > 100 µM (inactive) | GI50 (NCI-H226): > 100 µM (inactive) | GI50 (M14): > 100 µM (inactive) | GI50 (K562): > 100 µM (inactive) | GI50 (DMS-114): > 100 µM (inactive) | GI50 (HT-29): > 100 µM (inactive) | GI50 (SK-MEL-2): > 100 µM (inactive) | GI50 (NCI-H23): > 100 µM (inactive) | GI50 (SF-539): > 100 µM (inactive) | GI50 (HCT-116): > 100 µM (inactive) | GI50 (SNB-78): > 100 µM (inactive)

O=S(=O)(O)CS(=O)(=O)OCCCl
GI50 (MOLT-4): > 100 µM (inactive) | GI50 (SNB-19): > 100 µM (inactive) | GI50 (LXFL 529): > 100 µM (inactive) | GI50 (TK-10): > 100 µM (inactive) | GI50 (OVCAR-3): > 100 µM (inactive) | GI50 (LOX IMVI): > 100 µM (inactive) | GI50 (EKVX): > 100 µM (inactive) | GI50 (KM12): > 100 µM (inactive) | GI50 (SR): > 100 µM (inactive) | GI50 (KM-20L2): > 100 µM (inactive) | GI50 (UACC-62): > 100 µM (inactive) | GI50 (SNB-75): > 100 µM (inactive) | GI50 (COLO 205): > 100 µM (inactive) | GI50 (HOP-62): > 100 µM (inactive) | GI50 (SF-295): > 100 µM (inactive) | GI50 (NCI-H460): > 100 µM (inactive) | GI50 (IGROV-1): > 100 µM (inactive) | GI50 (SF-268): > 100 µM (inactive) | GI50 (OVCAR-4): > 100 µM (inactive) | GI50 (HOP-18): 81.8 µM (inactive) | GI50 (HOP-92): > 100 µM (inactive) | GI50 (SK-OV-3): > 100 µM (inactive) | GI50 (SK-MEL-28): > 100 µM (inactive) | GI50 (HCC 2998): > 100 µM (inactive) | GI50 (OVCAR-8): > 100 µM (inactive) | GI50 (SW-620): > 100 µM (inactive) | GI50 (SK-MEL-5): > 100 µM (inactive) | GI50 (A498): > 100 µM (inactive) | GI50 (M19-MEL): > 100 µM (inactive) | GI50 (RXF 631): > 100 µM (inactive) | GI50 (DMS-273): > 100 µM (inactive) | GI50 (U-251): > 100 µM (inactive) | GI50 (UACC-257): > 100 µM (inactive) | GI50 (Malme-3M): > 100 µM (inactive) | GI50 (786-0): > 100 µM (inactive) | GI50 (SN12C): > 100 µM (inactive) | GI50 (A549): > 100 µM (inactive) | GI50 (XF498): > 100 µM (inactive) | GI50 (NCI-H522): > 100 µM (inactive) | GI50 (RPMI-8226): > 100 µM (inactive) | GI50 (DLD-1): > 100 µM (inactive) | GI50 (OVCAR-5): > 100 µM (inactive) | GI50 (CAKI-1): > 100 µM (inactive) | GI50 (HL-60): > 100 µM (inactive) | GI50 (ACHN): > 100 µM (inactive) | GI50 (UO-31): > 100 µM (inactive) | GI50 (NCI-H226): > 100 µM (inactive) | GI50 (M14): > 100 µM (inactive) | GI50 (K562): > 100 µM (inactive) | GI50 (DMS-114): > 100 µM (inactive) | GI50 (RXF 393): > 100 µM (inactive) | GI50 (HT-29): > 100 µM (inactive) | GI50 (NCI-H23): > 100 µM (inactive) | GI50 (SF-539): > 100 µM (inactive) | GI50 (HCT-116): > 100 µM (inactive) | GI50 (SNB-78): > 100 µM (inactive)

c1ccc2c(CNCCCN3CCN(CCCNCc4cccc5ccccc45)CC3)cccc2c1
GI50 (MOLT-4): 1.22 µM (inactive) | GI50 (LXFL 529): 1.77 µM (inactive) | GI50 (TK-10): 1.5 µM (inactive) | GI50 (OVCAR-3): 2.89 µM (inactive) | GI50 (LOX IMVI): 1.35 µM (inactive) | GI50 (EKVX): 3.6 µM (inactive) | GI50 (KM12): 1.96 µM (inactive) | GI50 (SR): 0.655 µM (active) | GI50 (KM-20L2): 1.7 µM (inactive) | GI50 (UACC-62): 1.79 µM (inactive) | GI50 (SNB-75): 1.74 µM (inactive) | GI50 (COLO 205): 2.06 µM (inactive) | GI50 (HOP-62): 19.8 µM (inactive) | GI50 (SF-295): 1.77 µM (inactive) | GI50 (NCI-H460): 1.41 µM (inactive) | GI50 (IGROV-1): 3.07 µM (inactive) | GI50 (SF-268): 2.37 µM (inactive) | GI50 (OVCAR-4): 2.21 µM (inactive) | GI50 (HOP-18): 6.21 µM (inactive) | GI50 (HOP-92): 1.74 µM (inactive) | GI50 (SK-OV-3): 2.39 µM (inactive) | GI50 (SK-MEL-28): 1.69 µM (inactive) | GI50 (HCT-15): 1.8 µM | GI50 (OVCAR-8): 1.77 µM (inactive) | GI50 (SW-620): 1.77 µM (inactive) | GI50 (SK-MEL-5): 1.74 µM (inactive) | GI50 (A498): 10.9 µM (inactive) | GI50 (M19-MEL): 1.89 µM (inactive) | GI50 (RXF 631): 1.13 µM (inactive) | GI50 (DMS-273): 1.97 µM (inactive) | GI50 (U-251): 1.73 µM (inactive) | GI50 (CCRF-CEM): 1.24 µM (inactive) | GI50 (UACC-257): 1.92 µM (inactive) | GI50 (Malme-3M): 2.06 µM (inactive) | GI50 (786-0): 1.91 µM (inactive) | GI50 (SN12C): 3.68 µM (inactive) | GI50 (A549): 2.01 µM (inactive) | GI50 (XF498): 1.77 µM (inactive) | GI50 (NCI-H522): 1.59 µM (inactive) | GI50 (RPMI-8226): 1.03 µM (active) | GI50 (DLD-1): 1.75 µM (inactive) | GI50 (OVCAR-5): 2.15 µM (inactive) | GI50 (CAKI-1): 1.72 µM (inactive) | GI50 (HL-60): 1.44 µM (inactive) | GI50 (ACHN): 2.75 µM (inactive) | GI50 (UO-31): 1.82 µM (inactive) | GI50 (NCI-H226): 2.81 µM (inactive) | GI50 (M14): 1.18 µM (inactive) | GI50 (K562): 0.299 µM (active) | GI50 (DMS-114): 2 µM (inactive) | GI50 (RXF 393): 1.08 µM (active) | GI50 (HT-29): 1.65 µM (inactive) | GI50 (SK-MEL-2): 1.65 µM (inactive) | GI50 (NCI-H23): 11.4 µM (inactive) | GI50 (SF-539): 1.61 µM (inactive) | GI50 (HCT-116): 1.51 µM (inactive) | GI50 (SNB-78): 2.21 µM (inactive)
